From patent US10918727B2, “Peptide with ability to penetrate cell membrane” (ICURE BNP CO., LTD., priority 2016, dated 2021)
Non-standard residues stand in square brackets, D forms with d. No end group written: not given here.

Assays:
[1] = Body weight-reducing effect of intranasal TCTP-PTD 13-[D-Leu-4]-OB3; assay type: in vivo, mouse; settings: for body weight after 10 days compared with PBS or OB3 / rate of increase in body weight for 10 days compared with PBS or OB3: ICR mice, intranasal 2 mg/kg once each day for 10 days
Source text: A peptide (SEQ ID NO: 124) comprising [D-Leu-4]-OB3 linked to L-PTD 13 or D-PTD 13 by a GG linker was designed. Furthermore, peptides (SEQ ID NO: 125, SEQ ID NO: 126 and SEQ ID NO: 127, respectively) comprising [D-Leu-4]-OB3 linked to each of D-TCTP-PTD 13M1, D-TCTP-PTD 13M2 or D-TCTP-PTD 13M3 by a GG linker were designed. The peptides were synthesized with a purity of 90% or higher by Peptron Inc.
4-week-old male ICR mice were used as experimental animals and divided into the following groups, each consisting of 7 animals: PBS, [D-Leu-4]-OB3, L-PTD 134D-Leu-41-OB3, and D-PTD 134D-Leu-41-OB3 groups. Each of [D-Leu-4]-OB3, L-PTD 134D-Leu-41-OB3 and D-PTD 13-[D-Leu-4]-OB3 was administered intranasally to each mouse at a dose of 2 mg/kg once each day for 10 days at a uniform time point, while a change in the body weight of each of the experimental animals was measured.

[2] = Appetite-inhibiting effect (food intake) of intranasal TCTP-PTD 13-[D-Leu-4]-OB3; assay type: in vivo, mouse; settings: ICR mice, intranasal 2 mg/kg; for cumulative food intake compared with PBS: measured every day for 10 days
Protocol: In order to examine whether or not the body weight-reducing effect confirmed in Example 7-2 has a connection with a decrease in food intake, PBS, [D-Leu-4]-OB3, L-PTD 13-[D-Leu-4]-OB3 or D-PTD 13-[D-Leu-4]-OB3 was administered intranasally at a dose of 2 mg/kg, and the food intake was measured everyday for 10 days.

[3] = test system: human bronchial epithelial cell line BEAS-2B; assay: Cell membrane penetration of FITC-labeled L-/D-form TCTP-PTD 13 by flow cytometry; assay type: cell-based; settings: BEAS-2B cells, 2.5 μM FITC-labeled peptide, 30 minutes
Protocol: The human bronchial epithelial cell line BEAS-2B was prepared, and the cell membrane penetration ability of the TCTP-PTD peptide according to the amino acid type was analyzed by flow cytometry. Specifically, BEAS-2B cells were seeded on a 6-well plate at a density of 8×10^5 cells/well, and then cultured in cell culture medium (BEGM) for 24 hours. After 24 hours of cell culture, each well was washed twice with PBS, and then each well was treated with FITC-labeled L-form TCTP-PTD 13 (hereinafter referred to as L-PTD 13; SEQ ID NO: 27) or FITC-labeled D-form TCTP-PTD 13 (hereinafter referred to as D-PTD 13; SEQ ID NO: 27) diluted in cell culture medium such that the concentration of each TCTP-PTD would be 2.5 μM. 30 minutes after the cells were treated with the two kinds of TCTP-PTD 13, the cells were isolated from each well by use of 0.25% trypsin, and then washed 6 times with cold PBS to remove TCTP-PTD from the cell surface.

[4] = test system: hair follicle and dermis of the skin (male BALB/c mice); assay: Hair follicle penetration of FITC-labeled TCTP-PTD after transdermal administration (fluorescence microscopy); assay type: in vivo, mouse; settings: 100 μl of 100 μM FITC-labeled peptide on 1 cm^2, 2 hours
Protocol: (§1) Male BALB/c mice (7-8-week-old) were prepared, and the abdominal region of the mice was shaved. Next, the mice were anesthetized by intraperitoneal injection of urethane (1.2-1.5 g/kg), and then 100 μl of each TCTP-PTD peptide solution was applied to the abdominal region of each mouse so as to be administered transdermally. Each of the peptide solutions was applied to an area of 1 cm^2.
2 hours after transdermal administration, the skin tissue was collected, fixed with 10% formalin for about 24 hours, and then treated with 30% sucrose solution for 4 hours. The pretreated skin tissue was immersed in OCT-compound, and then treated with liquid nitrogen to prepare a frozen block. The skin tissue was sectioned to a thickness of 20 μm by use of a cryotome and attached to a slide. The slide having the skin tissue attached thereto was washed five times with PBS, and then the nucleus was stained with DAPI (blue fluorescence).
The amino terminus of L-PTD 13 or D-PTD 13 was labeled with FITC (green fluorescence), and then each PTD peptide was dissolved in PBS (phosphate buffered saline, pH 7.4) to a final concentration of 100 μM.
as §1, with “of the FITC-labeled L-PTD 13 or D-PTD 13” for “TCTP-PTD peptide”

[5] = test system: type 2 diabetic model mice (db/db mice); assay: Blood glucose-lowering effect of intranasal TCTP-PTD/Ex-4 mixture in type 2 diabetic model mice after i.p. glucose; assay type: in vivo, mouse; settings: Ex-4 10 μg/kg, 10 μM Ex-4 + 20 μM peptide, glucose 2.5 g/kg i.p., monitored 240 minutes
Protocol: Male db/db mice weighing 31-34 g were used as experimental animals. The mice were fasted overnight, and then the blood glucose level in the mice were measured using a blood glucose meter.
20 minutes after anesthesia, each of the prepared Ex-4/TCTP-PTD mixtures was administered intranasally to the mice (Ex-4 dose: 10 μg/kg), and a control group was administered intranasally with the same amount of Ex-4, and a negative control group was administered intranasally with the same amount of PBS. After 15 minutes, glucose (2.5 g/kg) was injected intraperitoneally to the mice, and the blood glucose level in the mice was monitored for 240 minutes.

[6] = test system: cervical cancer cell line HeLa; assay: Cell membrane penetration of FITC-labeled TCTP-PTD peptides in HeLa cells (fluorescence reader); assay type: cell-based; settings: 10 μM FITC-labeled peptide, 15 minutes
Protocol: The cervical cancer cell line HeLa was prepared. To detect TCTP-PTD accumulated in cells after passage through the cell membrane, the N-terminus of the synthesized peptide was labeled with FITC (fluorescein isothicyanate). Then, the cervical cancer cell line Hela was treated with 10 μM of the FITC-labeled TCTP-PTD of SEQ ID NO: 18, SEQ ID NO: 22, SEQ ID NO: 24 or SEQ ID NO: 27 for 15 minutes. After completion of the incubation, the cells were washed three times with PBS to remove FITC-TCTP-PTD remaining on the cell membrane of the HeLa cells. 500 μl of PBS was added, and then the fluorescence intensity of the FITC was measured with a fluorescence reader at 495 nm and 517 nm.

[7] = Plasma insulin concentration after intranasal administration of insulin/TCTP-PTD mixtures (ELISA); settings: rats, insulin 0.5 IU/kg, 50 μM insulin + 100 μM peptide, peptides compared with SEQ ID NO: 27
Source text: Male Wistar rats weighing 180-190 g were used as experimental animals and anesthetized in the same manner as described above.

[8] = test system: type 1 diabetic white rats (alloxan-induced); assay: Pharmacodynamic profile of nasal insulin formulations in type 1 diabetic (alloxan) rats; assay type: in vivo, rat; settings: type 1 diabetic rats
Protocol: Alloxan was injected intraperitoneally to experimental white rats to induce type 1 diabetes. One week after alloxan administration, white rats having a blood glucose level of 230-300 mg/dL were used as experimental animals.

[9] = Pharmacokinetic profile of nasal insulin formulations (plasma insulin); settings: rats
[10] = test system: type 1 diabetic model mice (STZ-induced male ICR mice); assay: Blood glucose-lowering effect of intranasal TCTP-PTD/insulin mixture in type 1 diabetic model mice; assay type: in vivo, mouse; settings: insulin 2 IU/kg, insulin:peptide 1:2, monitored 240 minutes
Protocol: Streptozotocin (STZ) was injected intraperitoneally into male ICR mice (body weight: 33-34.5 g) four times (doses: 100, 50, 50 and 50 mg/kg) at 2-day intervals to induce type 1 diabetes. At 7 days after last administration of STZ, mice having a blood glucose level of 300-350 mg/dL were selected as experimental animals.

[11] = test system: normal male white Wistar rats; assay: Pharmacodynamic profile of nasal insulin formulations in normal white rats (blood glucose); assay type: in vivo, rat; settings: subcutaneous
Protocol: After design of the nasal insulin formulations, evaluation of the pharmacodynamic profile of each nasal insulin formulation was performed in normal white rats. Specifically, male white Wistar rats weighing 165-200 g were used as experimental animals. For accuracy of evaluation, the […] were fasted overnight, and then white rats having a blood glucose level of 90-120 mg/dL in the fasted state were used in the experiment. To calculate PA (pharmacological availability), the initial blood glucose level was taken as 100%. To administer the nasal insulation formulations, the mice were anesthetized by intraperitoneal administration of the anesthetic sodium pentobarbital (dose: 65 mg/kg).

[12] = test system: nasal mucosal membrane (female BALB/c mice); assay: Penetration of OVA into nasal mucosal epithelial cells after intranasal OVA/TCTP-PTD 13 mixture (immunofluorescence); assay type: in vivo, mouse; settings: intranasal 10 μl, OVA 10 μM (4.5 μg), OVA:PTD 1:30, 15 minutes
Protocol: First, OVA and L-PTD 13 or D-PTD 13 were dissolved in PBS (phosphate buffered saline, pH 7.4) such that the concentrations of OVA and TCTP-PTD would be 10 μM and 300 μM, respectively, thereby preparing mixtures. Herein, OVA and TCTP-PTD were mixed at a molar ratio of 1:30.
Female BALB/c mice (6-8-week-old) were anesthetized by intraperitoneal injection of 50 mg/kg of zoletil and 10 mg/kg of xylazine.
10 μl of OVA, the OVA/D-PTD 13 mixture or the OVA/L-PTD 13 mixture was administered intranasally to each of the anesthetized mice. A control group was administered with 4.5 μg of OVA alone.
15 minutes after intranasal administration, the nasal tissue was collected. The collected nasal tissue was fixed with 10% formalin for about 24 hours, and then decalcified using 4 M formic acid at 4° C. for 30 hours. After decalcification, the nasal tissue was embedded in paraffin according to a conventional method, sectioned to a thickness of 5 μm, and attached to a slide. […] After incubation with the primary antibody, the slide was washed with PBS, and then incubated with a 1:100 dilution of secondary antibody (green fluorescence; Alexa 488-conjugated secondary antibodies, Invitrogen) at room temperature for 1 hour. The slide was washed with PBS, and then the nucleus was stained with DAPI (blue fluorescence), followed by observation with a fluorescence microscope.

For “D-PTD 13-[D-Leu-4]-OB3: peptide (SEQ ID NO: 124) comprising [D-Leu-4]-OB3 linked to D-PTD 13 by a GG linker ([dM][dI][dI][dF][dR][dA][dL][dI][dS][dH][dK][dK]GGSCS[dL]PQT)”, the “body weight after 10 days compared with PBS or OB3” value [1] was “decreased”, the “rate of increase in body weight for 10 days compared with PBS or OB3” value [1] was “lower” and the “total food intake after 10 days of administration” value [2] was “decreased”. For the same substance, the “cumulative food intake compared with PBS” value [2] was “decreased continuously”.
In the case of “D-PTD 13: D-form TCTP-PTD 13; SEQ ID NO: 27 ([dM][dI][dI][dF][dR][dA][dL][dI][dS][dH][dK][dK])”, the “ability to penetrate the cell membrane (flow cytometry)” value [3] is reported as “excellent ability to penetrate the cell membrane”, the “body weight-reducing and appetite-inhibiting effects, D-form vs L-form” value ([1]; peptide linked to [D-Leu-4]-OB3, intranasal 2 mg/kg, 10 days, results of Examples 7-2 and 7-3 together) is reported as “better effects than L-PTD 13” and the “penetration to hair follicle and dermis of the skin” value (“penetration … of the skin” below) [4] is reported as “reached the hair follicle and dermis of the skin”.
In the case of “L-PTD 13-[D-Leu-4]-OB3: peptide (SEQ ID NO: 124) comprising [D-Leu-4]-OB3 linked to L-PTD 13 by a GG linker (MIIFRALISHKKGGSCS[dL]PQT)”, the “body weight after 10 days compared with PBS or OB3” value [1] is reported as “decreased”, the “rate of increase in body weight for 10 days compared with PBS or OB3” value [1] is reported as “lower” and the “total food intake after 10 days of administration” value [2] is reported as “decreased”. The “cumulative food intake compared with PBS” value [2] was “decreased continuously”.
For “L-PTD 13: L-form TCTP-PTD 13; SEQ ID NO: 27 (MIIFRALISHKK; PTD #27)”, the “ability to penetrate the cell membrane (flow cytometry)” value [3] was “excellent ability to penetrate the cell membrane” and the “penetration … of the skin” value [4] was “reached the hair follicle and dermis of the skin”.
With “SEQ ID NO: 1: variant TCTP-PTD peptide (LIIFRALISHKK; PTD #1)” the “penetration … of the skin” value [4] was “reached the hair follicle and dermis of the skin”.
For “SEQ ID NO: 12: variant TCTP-PTD peptide (MIIFRLAAYHKK; PTD #12)”, the “penetration … of the skin” value [4] was “reached the hair follicle and dermis of the skin”.
With “SEQ ID NO: 17: variant TCTP-PTD peptide (MIIFRIAAYPKK; PTD #17)” the “penetration … of the skin” value [4] was “reached the hair follicle and dermis of the skin”.
In the case of “SEQ ID NO: 27: TCTP-PTD peptide of Korean Patent No. 10-0859972, basis of the variants (MIIFRALISHKK; PTD #27)”, the “blood glucose level after i.p. glucose / blood glucose-lowering effect” value [5] is reported as “increase the blood glucose-lowering effect of Ex-4” and the “fluorescence of FITC-labeled peptide in cells (cell membrane penetration)” value [6] is reported as “high level of fluorescence”.
In the case of insulin, the “blood insulin concentration / insulin uptake” value [7] is reported as “little or no change in the blood insulin concentration”, the “AAC 0-240 min (area above the blood glucose level-time curve)” value ([8]; nasal, insulin 2 IU/kg) is reported as 2156.65 ± 1070.68 and the “AAC 0-240 min (area above the blood glucose level-time curve)” value ([8]; subcutaneous, insulin 1 IU/kg) is reported as 26897.33 ± 772.31. For the same substance, the PA % ([8]; subcutaneous, insulin 1 IU/kg (reference)) was 100%, the “BA % (relative bioavailability vs s.c. insulin)” value ([9]; nasal, insulin 5 IU/kg, listed as Free insulin) was 3.34 ± 0.38% and the BA % ([9]; subcutaneous, insulin 0.25 IU/kg (reference)) was 100%. For the same substance, the “change in blood glucose level” value [10] was “no significant change in the blood glucose level”, the “AAC 0-180 min (area above the blood glucose level-time curve)” value ([11]; insulin 0.5 IU/kg) was 2560 and the “PA % (pharmacological availability)” value ([11]; insulin 0.5 IU/kg (reference)) was 100%.
In the case of “ovalbumin [OVA (ovalbumin), 45 kDa, model antigen for vaccination]”, the “OVA fluorescence inside the nasal mucosal membrane” value [12] is reported as “not substantially observed inside the nasal mucosal membrane”.
